From ChEMBL document CHEMBL5390201, “The Natural Alkaloid (-)-N-Hydroxyapiosporamide Suppresses Colorectal Tumor Progression as an NF-κB Pathway Inhibitor by Targeting the TAK1-TRAF6 Complex” (J Nat Prod, 2023)
Activity calls are given as the source filed them. The calls are words filed in the database; no cut-off is given here.

What was measured:
HCT-116 [1] = assay: Induction of apoptosis in human HCT-116 cells assessed as late apoptotic cells at 5 uM incubated for 24 hrs by Annexin V-FITC/PI staining based flow cytometric analysis (reference value: 2.9 %); type: functional
HCT-116 [2] = assay: Cytotoxicity against human HCT-116 cells assessed as inhibition of cell growth incubated for 24 hrs by SRB assay; type: functional, cell-based; conditions: HCT-116, 24 h
HCT-116 [3] = assay: Induction of apoptosis in human HCT-116 cells assessed as inhibition of PARP protein expression measured for 24 hrs by Western blot analysis; type: functional, cell-based; conditions: dose 0-10 µM
HCT-116 [4] = assay: Antitumor activity against human HCT-116 cells xenografted in athymic nude BALB/c mouse assessed as induction of autophagy by measuring increase in LC3B expression in tumor at 15 mg/kg, ip administered every other day and measured after 14 days by immunohistochemistry analysis; type: functional, organism-based; conditions: time 14.0 day
[5] = Half life in Sprague-Dawley rat at 10 mg/kg, ip measured for 24 hrs by HPLC-MS/MS analysis; type: ADME, organism-based; conditions: in vivo
Mus musculus [6] = assay: Protection against LPS-induced endotoxic shock in BALB/c mouse model assessed as survival rate at 5 mg/kg, ip pretreated for 4 hrs followed by LPS administration at 20 mg/kg and measured every 2 to 4 hrs for 44 hrs relative to control; type: functional; conditions: time 48 hrs
HT-29 [7] = assay: Cytotoxicity against human HT-29 cells assessed as inhibition of cell growth incubated for 24 hrs by SRB assay; type: functional, cell-based; conditions: HT-29, 24 h
HCT-116 [8] = assay: Induction of autophagic flux in human HCT-116 cells assessed as increase in LC3I to LC3II conversion preincubated with chloroquine for 1 hr followed by compound addition and measured after 24 hrs by Western blot analysis; type: functional, cell-based
HT-29 [9] = assay: Induction of cell cycle arrest in human HT-29 cells assessed as accumulation of cells at S phase at 5 uM by RNase/PI staining based flow cytometry analysis (reference value: 39.34%); type: functional
Mus musculus [10] = assay: In vivo inhibition of NFkappaB activation in athymic BALB/c mouse xenografted with human HT-29 cells assessed as reduction in MCP-1 gene expression in tumor at 5 to 15 mg/kg, ip administered every other day and measured after 14 days by qRT-PCR analysis; type: functional, organism-based; conditions: dose 5-15 mg/kg, time 14.0 day
HCT-116 [11] = assay: Induction of cell cycle arrest in human HCT-116 cells assessed as decrease in Cdc25c protein expression upto 10 uM incubated for 24 hrs by Western blot analysis; type: functional, cell-based
Mus musculus [12] = assay: In vivo inhibition of NFkappaB activation in athymic BALB/c mouse xenografted with human HCT-116 cells assessed as reduction in IL-8 gene expression in tumor at 15 mg/kg, ip administered every other day and measured after 14 days by qRT-PCR analysis; type: functional, organism-based; conditions: time 14.0 day
Mus musculus [13] = assay: Anti-inflammatory activity in AOM/DSS-induced BALB/c mouse model inflammatory bowel disease assessed as reduction in death rate at 5 to 10 mg/kg, ip pretreated with AOM for 7 days further replaced with DSS for 7 days and repeated for 2 times followed by every 2 days compound treatment for […] starting from day 50 and measured once a week; type: functional, organism-based; conditions: dose 5-10 mg/kg, time 21.0 day
[14] = molecular target: Nuclear factor NF-kappa-B complex (Homo sapiens) (UniProt Q00653+P19838+Q04206); assay: Inhibition of TNF-alpha induced NFkappaB activation in human HCT-116 cells assessed as downregulation of MCP-1 gene expression pretreated for 24 hrs followed by TNFalpha stimulation and measured after 2 hrs by quantitative RT-PCR analysis; type: cell-based; conditions: dose 1-10 µM, time 26.0 hrs
HCT-116 [15] = assay: Induction of cell cycle arrest in human HCT-116 cells assessed as accumulation of cells at S phase at 10 uM by RNase/PI staining based flow cytometry analysis (reference value: 43.77 %); type: functional
HCT-116 [16] = assay: Induction of autophagic cell death in human HCT-116 cells at 1 to 10 uM pretreated with 3-methyladenine for 1 hr followed by compound addition and measured after 24 hrs by SRB assay; type: functional, cell-based; conditions: dose 1-10 µM
[17] = Toxicity in athymic nude BALB/c mouse assessed as change in serum AST level at 5 to 15 mg/kg, ip administered every other day and measured after 14 days; type: organism-based; conditions: in vivo, 336 h, dose 5-15 mg/kg, time 14 day
HCT-116 [18] = assay: Induction of apoptosis in human HCT-116 cells assessed as early apoptotic cells at 0.5 uM incubated for 24 hrs by Annexin V-FITC/PI staining based flow cytometric analysis (reference value: 7.22 %); type: functional
[19] = Toxicity in athymic nude BALB/c mouse assessed as change in serum creatine kinase level at 5 to 15 mg/kg, ip administered every other day and measured after 14 days; type: organism-based; conditions: in vivo, 336 h, dose 5-15 mg/kg, time 14 day
HCT-116 [20] = assay: Antitumor activity against human HCT-116 cells xenografted in athymic nude BALB/c mouse assessed as induction of apoptosis by measuring increase in cleaved caspase 3 expression in tumor at 15 mg/kg, ip administered every other day and measured after 14 days by immunohistochemistry analysis; type: functional, organism-based; conditions: time 14.0 day
[21] = Cmax in Sprague-Dawley rat at 10 mg/kg, iv measured for 5 mins by HPLC-MS/MS analysis; type: ADME, organism-based; set-up: time 5 min, dose 10 mg/kg, route iv; conditions: in vivo
HCT-116 [22] = assay: Induction of cell cycle arrest in human HCT-116 cells assessed as accumulation of cells at G2/M phase at 10 uM by RNase/PI staining based flow cytometry analysis (reference value: 23.15 %); type: functional
HT-29 [23] = assay: Induction of apoptosis in human HT-29 cells assessed as late apoptotic cells at 0.25 uM incubated for 24 hrs by Annexin V-FITC/PI staining based flow cytometric analysis (reference value: 1.56 %); type: functional
HT-29 [24] = assay: Induction of cell cycle arrest in human HT-29 cells assessed as decrease in CDK4 protein expression upto 10 uM incubated for 24 hrs by Western blot analysis; type: functional, cell-based
Cell membrane = assay: Disruption of mitochondrial membrane potential in human HT-29 cells at upto 10 uM measured after 24 hrs by JC-1 staining based fluorescence microscopy; type: subcellular
HCT-116 [25] = assay: Induction of apoptosis in human HCT-116 cells assessed as necrotic cells at 5 uM preincubated with Z-VAD-FMK for 1 hr followed by compound addition and measured after 24 hrs by Annexin V-FITC/PI staining based flow cytometric analysis (reference value: 0.34 %); type: functional
HCT-116 [26] = assay: Induction of cell cycle arrest in human HCT-116 cells assessed as accumulation of cells at S phase at 1 uM by RNase/PI staining based flow cytometry analysis (reference value: 43.77 %); type: functional
HT-29 [27] = assay: Antitumor activity against human HT-29 cells xenografted in athymic nude BALB/c mouse assessed as induction of autophagy by measuring increase in LC3B expression in tumor at 15 mg/kg, ip administered every other day and measured after 14 days by immunohistochemistry analysis; type: functional, organism-based; conditions: time 14.0 day
Mus musculus [28] = assay: Anti-inflammatory activity in AOM/DSS-induced BALB/c mouse model inflammatory bowel disease assessed as reduction in colon thickness at 5 to 10 mg/kg, ip pretreated with AOM for 7 days further replaced with DSS for 7 days and repeated for 2 times followed by every 2 days compound treatment for […] starting from day 50 and measured once a week; type: functional, organism-based; conditions: dose 5-10 mg/kg, time 21.0 day

Nuclear factor NF-kappa-B complex (Homo sapiens), sequence (P19838 whole entry, looked up): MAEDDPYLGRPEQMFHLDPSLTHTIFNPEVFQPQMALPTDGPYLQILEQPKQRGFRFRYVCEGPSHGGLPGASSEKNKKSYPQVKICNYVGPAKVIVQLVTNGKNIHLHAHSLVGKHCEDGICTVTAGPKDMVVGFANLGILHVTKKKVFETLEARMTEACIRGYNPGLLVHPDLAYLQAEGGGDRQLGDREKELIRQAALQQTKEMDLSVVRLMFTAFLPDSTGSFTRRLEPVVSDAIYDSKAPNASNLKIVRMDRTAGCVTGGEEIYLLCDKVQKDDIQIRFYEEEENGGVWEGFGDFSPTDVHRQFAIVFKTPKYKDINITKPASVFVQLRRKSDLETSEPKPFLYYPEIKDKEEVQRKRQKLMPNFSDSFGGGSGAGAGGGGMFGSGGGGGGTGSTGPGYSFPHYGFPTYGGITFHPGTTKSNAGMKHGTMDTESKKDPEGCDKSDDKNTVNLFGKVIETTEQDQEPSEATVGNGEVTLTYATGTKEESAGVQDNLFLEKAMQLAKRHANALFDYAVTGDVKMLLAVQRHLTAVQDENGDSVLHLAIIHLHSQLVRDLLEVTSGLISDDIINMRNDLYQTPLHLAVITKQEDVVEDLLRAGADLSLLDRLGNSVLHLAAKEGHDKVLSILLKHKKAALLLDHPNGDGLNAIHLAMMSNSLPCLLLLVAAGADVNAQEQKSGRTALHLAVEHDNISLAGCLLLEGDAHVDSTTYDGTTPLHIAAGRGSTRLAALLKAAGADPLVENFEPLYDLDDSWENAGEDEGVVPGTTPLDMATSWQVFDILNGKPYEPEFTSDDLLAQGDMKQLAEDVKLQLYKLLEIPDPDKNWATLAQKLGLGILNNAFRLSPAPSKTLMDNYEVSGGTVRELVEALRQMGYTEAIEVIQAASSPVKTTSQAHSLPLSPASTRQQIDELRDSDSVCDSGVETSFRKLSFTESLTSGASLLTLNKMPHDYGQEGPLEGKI
Nuclear factor NF-kappa-B complex (Homo sapiens), sequence (Q00653 whole entry, looked up): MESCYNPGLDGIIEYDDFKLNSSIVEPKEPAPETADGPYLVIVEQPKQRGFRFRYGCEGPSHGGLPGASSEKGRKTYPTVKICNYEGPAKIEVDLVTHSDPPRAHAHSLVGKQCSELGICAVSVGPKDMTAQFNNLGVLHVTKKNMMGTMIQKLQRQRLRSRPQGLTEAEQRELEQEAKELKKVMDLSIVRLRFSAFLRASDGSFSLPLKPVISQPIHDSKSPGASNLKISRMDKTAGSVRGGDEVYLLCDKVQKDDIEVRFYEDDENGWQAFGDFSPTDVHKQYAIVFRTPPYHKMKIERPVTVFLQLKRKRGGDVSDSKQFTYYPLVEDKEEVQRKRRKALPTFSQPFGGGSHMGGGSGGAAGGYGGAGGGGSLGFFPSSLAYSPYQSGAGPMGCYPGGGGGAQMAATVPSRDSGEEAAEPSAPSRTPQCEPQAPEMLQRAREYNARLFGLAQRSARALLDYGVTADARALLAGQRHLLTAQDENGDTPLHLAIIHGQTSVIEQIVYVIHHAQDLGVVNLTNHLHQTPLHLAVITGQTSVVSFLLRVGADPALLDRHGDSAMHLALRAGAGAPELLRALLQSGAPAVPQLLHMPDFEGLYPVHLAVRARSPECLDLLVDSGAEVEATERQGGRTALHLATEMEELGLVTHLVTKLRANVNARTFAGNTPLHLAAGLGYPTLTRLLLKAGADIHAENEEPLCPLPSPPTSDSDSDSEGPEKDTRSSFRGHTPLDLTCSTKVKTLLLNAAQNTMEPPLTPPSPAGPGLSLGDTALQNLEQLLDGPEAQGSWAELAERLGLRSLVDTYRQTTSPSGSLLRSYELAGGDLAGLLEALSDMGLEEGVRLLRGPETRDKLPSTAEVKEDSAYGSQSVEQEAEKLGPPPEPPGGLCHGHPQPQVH
Nuclear factor NF-kappa-B complex (Homo sapiens), sequence (Q04206 whole entry, looked up): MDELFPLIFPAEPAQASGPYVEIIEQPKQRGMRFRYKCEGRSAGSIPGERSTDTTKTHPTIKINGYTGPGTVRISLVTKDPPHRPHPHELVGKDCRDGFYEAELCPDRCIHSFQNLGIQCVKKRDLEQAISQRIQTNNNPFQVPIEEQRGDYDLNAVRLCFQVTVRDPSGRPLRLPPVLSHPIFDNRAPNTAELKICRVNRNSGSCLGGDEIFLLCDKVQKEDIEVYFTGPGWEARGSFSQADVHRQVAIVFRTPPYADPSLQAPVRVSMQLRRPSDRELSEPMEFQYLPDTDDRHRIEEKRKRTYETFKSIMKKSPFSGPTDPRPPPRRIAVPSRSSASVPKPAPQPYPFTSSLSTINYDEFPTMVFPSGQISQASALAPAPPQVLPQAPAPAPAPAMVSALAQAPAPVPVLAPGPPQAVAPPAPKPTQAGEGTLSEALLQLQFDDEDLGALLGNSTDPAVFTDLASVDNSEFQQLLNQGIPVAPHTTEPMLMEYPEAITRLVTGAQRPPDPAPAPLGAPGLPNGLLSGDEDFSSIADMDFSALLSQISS

For C[C@@H]1CC[C@H]2[C@H](C(=O)c3c(O)c([C@@]4(O)CC[C@@H](O)[C@H]5O[C@H]54)cn(O)c3=O)[C@H](C)C=C[C@@H]2C1, the Activity (HCT-116 [1]) was 64.4%, the IC50 (HCT-116 [2]) was 2.8 µM and the Activity (HCT-116 [3]) was “Dose-Dependent Effect”. For the same molecule, the Activity (HCT-116 [4]) was “Active”, the half-life [5] was 3.73 h and the survival at 5 mg/kg (Mus musculus [6]) was > 40%. For the same molecule, the IC50 (HT-29 [7]) was 0.61 µM, the Activity (HCT-116 [8]) was “Active” and the Activity (HT-29 [9]) was 32.46%. For the same molecule, the inhibition (Mus musculus [10]) was “Active”, the Activity (HCT-116 [11]) was “Active” and the inhibition (Mus musculus [12]) was “Active”. For the same molecule, the Activity (Mus musculus [13]) was “Active”, the inhibition [14] was “Dose-Dependent Effect” and the Activity (HCT-116 [15]) was 39.08%. The Activity (HCT-116 [16]) was “inactive”, the Activity [17] was “Non-Toxic” and the Activity (HCT-116 [18]) was 13.2%. For the same molecule, the Activity [19] was “Non-Toxic”, the Activity (HCT-116 [20]) was “Active” and the Cmax [21] was 13200 ng/mL. The Activity (HCT-116 [22]) was 14.17%, the Activity (HT-29 [23]) was 1.4% and the Activity (HT-29 [24]) was “Active”. For the same molecule, the Activity (Cell membrane) was “Active”, the Activity (HCT-116 [25]) was 0.39% and the Activity (HCT-116 [26]) was 43.65%. The Activity (HT-29 [27]) was “Active” and the Activity (Mus musculus [28]) was “Active”.
